Measurements reported in patent US8680094B2, “1, 4-benzoxazine compounds and derivatives thereof as therapeutic drugs for the treatment of neurodegenerative conditions” (Board of Regents, The University of Texas System, priority 2008, dated 2014).

Assays:
Assay in all cases: In vitro kinase activity
Format in all cases: biochemical
ROCK1 = ROCK1 (Homo sapiens, UniProt Q13464); settings: percentage of control assays without compound, mean of duplicate
Procedure: (§1) To better understand the mechanism of action of the compounds of the present invention, but in no way a limitation; the effects of HSB-13 and ASK-2a on 20 different kinases were examined in vitro. At 500 nM concentration, ASK-2a inhibited the kinase activities of GSK3α, GSK3β, p38α, p38β, JNK3, MLK3, and B-Raf substantially. […] As described above, ASK-2a protects cerebellar granule neurons against LK-induced death but is ineffective against HCA-induced toxicity of HT-22 cells. In contrast, HSB-13 is protective in both paradigms. […] Previous studies have established that CDK inhibitors can protect neurons against a number of different apoptotic stimuli.
(§2) The activity of each kinase was measured in vitro in the presence either 100 nM or 500 nM ASK-2a. Kinase activity is expressed as a percentage of that in control assays (without ASK-2a). The values are mean of assays performed in duplicate. Substantial inhibition of kinase activity (>20%) is in bold type.
(§3) Table 3: Effect of HSB-13 at 500 nM on 20 different kinases measured in vitro. Kinase activity is expressed as a percentage of that in control assays (without HSB-13). The values are mean of assays performed in duplicate. Substantial inhibition of kinase activity (>20%) is in bold type.

ASK1 = molecular target: T1, ASK1 (Homo sapiens, UniProt Q99683); settings: percentage of control assays without compound, mean of duplicate
T1 sequence (Q99683 1-1374): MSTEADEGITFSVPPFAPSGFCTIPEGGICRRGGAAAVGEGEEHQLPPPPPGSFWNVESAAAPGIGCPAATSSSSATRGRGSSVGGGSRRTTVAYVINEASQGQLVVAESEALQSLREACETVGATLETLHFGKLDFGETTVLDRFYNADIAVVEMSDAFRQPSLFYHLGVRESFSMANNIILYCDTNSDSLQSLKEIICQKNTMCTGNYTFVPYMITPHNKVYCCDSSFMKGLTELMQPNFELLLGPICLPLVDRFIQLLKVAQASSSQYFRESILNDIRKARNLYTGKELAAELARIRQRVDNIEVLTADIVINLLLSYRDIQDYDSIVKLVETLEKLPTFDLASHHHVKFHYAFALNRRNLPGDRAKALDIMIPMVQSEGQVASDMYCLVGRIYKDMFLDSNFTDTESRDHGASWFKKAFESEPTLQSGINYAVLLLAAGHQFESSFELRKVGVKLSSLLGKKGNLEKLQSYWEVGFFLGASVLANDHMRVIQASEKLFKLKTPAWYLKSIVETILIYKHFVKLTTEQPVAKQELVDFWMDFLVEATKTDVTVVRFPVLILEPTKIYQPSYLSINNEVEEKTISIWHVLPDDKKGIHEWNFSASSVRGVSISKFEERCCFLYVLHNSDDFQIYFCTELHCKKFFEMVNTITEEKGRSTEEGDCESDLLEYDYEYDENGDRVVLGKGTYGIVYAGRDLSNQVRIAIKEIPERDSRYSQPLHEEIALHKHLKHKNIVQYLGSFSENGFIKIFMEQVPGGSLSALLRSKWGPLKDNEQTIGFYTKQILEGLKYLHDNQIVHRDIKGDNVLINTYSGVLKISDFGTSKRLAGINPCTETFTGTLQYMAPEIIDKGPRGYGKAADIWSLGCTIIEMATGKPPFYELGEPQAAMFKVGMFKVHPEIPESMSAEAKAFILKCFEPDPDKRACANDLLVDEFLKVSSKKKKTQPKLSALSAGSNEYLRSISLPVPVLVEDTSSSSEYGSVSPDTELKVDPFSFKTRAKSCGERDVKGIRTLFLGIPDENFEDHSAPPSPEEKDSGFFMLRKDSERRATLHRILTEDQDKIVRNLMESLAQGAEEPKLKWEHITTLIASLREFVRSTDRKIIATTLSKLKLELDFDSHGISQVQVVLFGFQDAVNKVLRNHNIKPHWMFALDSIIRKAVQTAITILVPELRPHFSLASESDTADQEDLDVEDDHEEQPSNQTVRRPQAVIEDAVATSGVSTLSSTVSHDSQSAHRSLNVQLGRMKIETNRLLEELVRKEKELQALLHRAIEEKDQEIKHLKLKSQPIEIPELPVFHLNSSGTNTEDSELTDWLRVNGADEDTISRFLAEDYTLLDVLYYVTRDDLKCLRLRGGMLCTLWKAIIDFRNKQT
Procedure: as §1, §2, §3

p38β = p38β (Homo sapiens, UniProt Q15759); settings: percentage of control assays without compound, mean of duplicate
Procedure: as §1, §2, §3

CDK6/Cyclin D3 = CDK6/Cyclin D3 (Homo sapiens, UniProt Q00534); settings: percentage of control assays without compound, mean of duplicate
Procedure: as §1, §2, §3

LRRK2 = LRRK2 (Homo sapiens, UniProt Q5S007); settings: percentage of control assays without compound, mean of duplicate
Sequence of LRRK2 (Q5S007 whole entry, species assumed): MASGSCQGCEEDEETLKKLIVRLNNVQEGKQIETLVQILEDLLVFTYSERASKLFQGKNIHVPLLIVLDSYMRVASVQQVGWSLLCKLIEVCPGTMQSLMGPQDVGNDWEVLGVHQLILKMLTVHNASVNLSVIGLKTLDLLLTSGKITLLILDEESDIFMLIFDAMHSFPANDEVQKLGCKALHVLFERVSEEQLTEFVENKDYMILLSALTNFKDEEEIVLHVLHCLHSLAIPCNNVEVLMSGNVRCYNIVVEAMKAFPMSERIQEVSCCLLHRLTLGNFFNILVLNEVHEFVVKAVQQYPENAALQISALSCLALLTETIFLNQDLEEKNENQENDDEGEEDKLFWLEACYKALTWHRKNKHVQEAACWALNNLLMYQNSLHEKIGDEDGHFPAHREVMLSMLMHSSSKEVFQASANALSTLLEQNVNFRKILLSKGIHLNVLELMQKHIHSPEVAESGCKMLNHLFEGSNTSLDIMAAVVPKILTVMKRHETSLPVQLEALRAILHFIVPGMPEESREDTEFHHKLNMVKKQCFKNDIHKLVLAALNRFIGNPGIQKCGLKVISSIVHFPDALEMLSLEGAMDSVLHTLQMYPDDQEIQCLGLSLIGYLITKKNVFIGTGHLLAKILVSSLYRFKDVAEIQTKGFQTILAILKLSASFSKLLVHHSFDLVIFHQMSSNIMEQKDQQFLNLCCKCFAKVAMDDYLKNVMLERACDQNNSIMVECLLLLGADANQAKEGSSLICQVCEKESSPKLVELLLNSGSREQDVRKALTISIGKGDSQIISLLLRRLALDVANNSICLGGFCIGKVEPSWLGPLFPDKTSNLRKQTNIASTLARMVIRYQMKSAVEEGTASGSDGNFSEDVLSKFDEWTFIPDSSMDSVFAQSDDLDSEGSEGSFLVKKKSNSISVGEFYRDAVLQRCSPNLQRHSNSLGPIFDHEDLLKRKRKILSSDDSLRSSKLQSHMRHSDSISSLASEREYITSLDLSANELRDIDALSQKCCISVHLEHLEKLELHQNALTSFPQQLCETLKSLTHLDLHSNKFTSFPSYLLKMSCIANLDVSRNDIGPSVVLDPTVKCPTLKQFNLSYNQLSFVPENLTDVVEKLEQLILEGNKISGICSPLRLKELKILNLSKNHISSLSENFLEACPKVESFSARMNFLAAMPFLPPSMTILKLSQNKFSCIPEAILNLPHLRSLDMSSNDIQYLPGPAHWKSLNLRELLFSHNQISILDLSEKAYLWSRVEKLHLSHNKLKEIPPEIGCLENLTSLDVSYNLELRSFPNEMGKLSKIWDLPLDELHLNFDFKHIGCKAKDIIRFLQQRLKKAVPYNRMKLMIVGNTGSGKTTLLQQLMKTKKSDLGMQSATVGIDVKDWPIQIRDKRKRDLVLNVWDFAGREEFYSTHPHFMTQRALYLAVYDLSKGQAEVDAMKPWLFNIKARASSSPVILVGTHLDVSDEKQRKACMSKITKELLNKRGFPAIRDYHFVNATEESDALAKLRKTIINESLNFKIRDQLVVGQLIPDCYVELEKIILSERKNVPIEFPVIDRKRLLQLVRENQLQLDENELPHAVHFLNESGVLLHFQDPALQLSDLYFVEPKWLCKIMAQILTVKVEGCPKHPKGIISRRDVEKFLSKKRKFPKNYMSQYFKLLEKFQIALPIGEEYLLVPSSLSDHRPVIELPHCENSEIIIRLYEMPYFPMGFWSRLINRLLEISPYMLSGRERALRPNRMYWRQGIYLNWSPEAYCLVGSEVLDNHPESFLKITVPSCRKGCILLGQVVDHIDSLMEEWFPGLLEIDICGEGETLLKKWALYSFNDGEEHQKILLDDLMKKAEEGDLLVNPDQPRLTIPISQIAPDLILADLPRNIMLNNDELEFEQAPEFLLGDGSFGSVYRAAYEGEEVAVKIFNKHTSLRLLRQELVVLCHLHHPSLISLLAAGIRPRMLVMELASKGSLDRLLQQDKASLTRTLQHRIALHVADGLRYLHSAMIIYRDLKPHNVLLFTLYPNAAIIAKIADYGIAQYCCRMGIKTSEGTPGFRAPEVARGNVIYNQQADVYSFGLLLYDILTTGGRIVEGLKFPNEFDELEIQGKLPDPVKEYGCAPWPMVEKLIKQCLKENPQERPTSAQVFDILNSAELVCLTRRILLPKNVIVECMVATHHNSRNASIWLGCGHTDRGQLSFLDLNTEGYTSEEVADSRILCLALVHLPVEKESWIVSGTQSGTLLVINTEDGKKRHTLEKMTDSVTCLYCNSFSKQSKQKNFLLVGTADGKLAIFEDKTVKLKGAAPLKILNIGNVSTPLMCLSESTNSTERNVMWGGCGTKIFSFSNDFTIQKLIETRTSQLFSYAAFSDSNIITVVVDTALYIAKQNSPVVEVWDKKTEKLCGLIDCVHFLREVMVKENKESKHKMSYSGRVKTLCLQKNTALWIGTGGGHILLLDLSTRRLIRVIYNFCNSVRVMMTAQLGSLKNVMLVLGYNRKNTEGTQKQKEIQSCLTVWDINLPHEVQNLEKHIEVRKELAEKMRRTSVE
Procedure: as §1, §2, §3

JNK3 = JNK3 (Homo sapiens, UniProt P53779); settings: percentage of control assays without compound, mean of duplicate
Procedure: as §1, §2, §3

CDK1/Cyclin B1 = CDK1/Cyclin B1 (Homo sapiens, UniProt P06493); settings: percentage of control assays without compound, mean of duplicate
Procedure: as §1, §2, §3

CDK4/Cyclin D1 = CDK4/Cyclin D1 (Homo sapiens, UniProt P11802); settings: percentage of control assays without compound, mean of duplicate
Procedure: as §1, §2, §3

CDK2/Cyclin A1 = CDK2/Cyclin A1 (Homo sapiens, UniProt P24941); settings: percentage of control assays without compound, mean of duplicate
Procedure: as §1, §2, §3

MLK3 = MLK3 (Homo sapiens, UniProt Q16584); settings: 100 nM, percentage of control assays without compound, mean of duplicate
Sequence of MLK3 (Q16584 whole entry, species assumed): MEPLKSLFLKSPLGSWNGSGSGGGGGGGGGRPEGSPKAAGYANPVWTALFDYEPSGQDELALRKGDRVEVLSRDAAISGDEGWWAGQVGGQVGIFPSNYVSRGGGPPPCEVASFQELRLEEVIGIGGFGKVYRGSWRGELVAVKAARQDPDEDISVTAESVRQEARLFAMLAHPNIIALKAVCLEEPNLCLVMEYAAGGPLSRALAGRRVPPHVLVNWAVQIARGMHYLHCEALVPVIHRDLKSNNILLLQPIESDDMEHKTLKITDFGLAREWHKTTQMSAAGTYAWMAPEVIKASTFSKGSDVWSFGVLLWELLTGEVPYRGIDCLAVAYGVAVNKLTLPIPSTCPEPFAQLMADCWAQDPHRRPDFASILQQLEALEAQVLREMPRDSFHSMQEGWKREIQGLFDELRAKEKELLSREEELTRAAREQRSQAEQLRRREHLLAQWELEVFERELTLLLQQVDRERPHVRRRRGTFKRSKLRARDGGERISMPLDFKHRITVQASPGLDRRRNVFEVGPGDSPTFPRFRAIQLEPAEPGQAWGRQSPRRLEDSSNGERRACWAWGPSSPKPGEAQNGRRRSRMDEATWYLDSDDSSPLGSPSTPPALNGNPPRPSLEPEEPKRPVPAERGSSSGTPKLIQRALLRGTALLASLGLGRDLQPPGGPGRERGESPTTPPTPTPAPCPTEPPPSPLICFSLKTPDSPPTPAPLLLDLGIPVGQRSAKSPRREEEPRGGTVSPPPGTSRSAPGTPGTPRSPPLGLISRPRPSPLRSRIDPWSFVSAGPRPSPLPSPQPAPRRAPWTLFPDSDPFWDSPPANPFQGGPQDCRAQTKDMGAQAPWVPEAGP
Procedure: as §1, §2, §3

GSK3β = GSK3β (Homo sapiens, UniProt P49841); settings: percentage of control assays without compound, mean of duplicate
Sequence of GSK3β (P49841 whole entry, species assumed): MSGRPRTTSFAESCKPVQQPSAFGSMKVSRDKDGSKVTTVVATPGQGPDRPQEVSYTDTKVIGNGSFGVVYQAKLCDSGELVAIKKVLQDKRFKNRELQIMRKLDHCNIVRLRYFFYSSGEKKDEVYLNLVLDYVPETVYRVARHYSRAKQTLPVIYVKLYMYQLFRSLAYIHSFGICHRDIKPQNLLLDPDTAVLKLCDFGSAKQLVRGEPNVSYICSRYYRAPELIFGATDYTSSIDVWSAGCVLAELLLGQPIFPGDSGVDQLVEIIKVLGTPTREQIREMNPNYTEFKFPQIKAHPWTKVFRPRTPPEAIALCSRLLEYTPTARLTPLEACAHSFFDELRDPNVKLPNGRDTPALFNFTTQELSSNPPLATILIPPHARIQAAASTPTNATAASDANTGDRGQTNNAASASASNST
Procedure: as §1, §2, §3

[1] = 100 nM, listed as ASK2a, 0.1 µM

Sequence of ROCK1 (Q13464 whole entry, species assumed): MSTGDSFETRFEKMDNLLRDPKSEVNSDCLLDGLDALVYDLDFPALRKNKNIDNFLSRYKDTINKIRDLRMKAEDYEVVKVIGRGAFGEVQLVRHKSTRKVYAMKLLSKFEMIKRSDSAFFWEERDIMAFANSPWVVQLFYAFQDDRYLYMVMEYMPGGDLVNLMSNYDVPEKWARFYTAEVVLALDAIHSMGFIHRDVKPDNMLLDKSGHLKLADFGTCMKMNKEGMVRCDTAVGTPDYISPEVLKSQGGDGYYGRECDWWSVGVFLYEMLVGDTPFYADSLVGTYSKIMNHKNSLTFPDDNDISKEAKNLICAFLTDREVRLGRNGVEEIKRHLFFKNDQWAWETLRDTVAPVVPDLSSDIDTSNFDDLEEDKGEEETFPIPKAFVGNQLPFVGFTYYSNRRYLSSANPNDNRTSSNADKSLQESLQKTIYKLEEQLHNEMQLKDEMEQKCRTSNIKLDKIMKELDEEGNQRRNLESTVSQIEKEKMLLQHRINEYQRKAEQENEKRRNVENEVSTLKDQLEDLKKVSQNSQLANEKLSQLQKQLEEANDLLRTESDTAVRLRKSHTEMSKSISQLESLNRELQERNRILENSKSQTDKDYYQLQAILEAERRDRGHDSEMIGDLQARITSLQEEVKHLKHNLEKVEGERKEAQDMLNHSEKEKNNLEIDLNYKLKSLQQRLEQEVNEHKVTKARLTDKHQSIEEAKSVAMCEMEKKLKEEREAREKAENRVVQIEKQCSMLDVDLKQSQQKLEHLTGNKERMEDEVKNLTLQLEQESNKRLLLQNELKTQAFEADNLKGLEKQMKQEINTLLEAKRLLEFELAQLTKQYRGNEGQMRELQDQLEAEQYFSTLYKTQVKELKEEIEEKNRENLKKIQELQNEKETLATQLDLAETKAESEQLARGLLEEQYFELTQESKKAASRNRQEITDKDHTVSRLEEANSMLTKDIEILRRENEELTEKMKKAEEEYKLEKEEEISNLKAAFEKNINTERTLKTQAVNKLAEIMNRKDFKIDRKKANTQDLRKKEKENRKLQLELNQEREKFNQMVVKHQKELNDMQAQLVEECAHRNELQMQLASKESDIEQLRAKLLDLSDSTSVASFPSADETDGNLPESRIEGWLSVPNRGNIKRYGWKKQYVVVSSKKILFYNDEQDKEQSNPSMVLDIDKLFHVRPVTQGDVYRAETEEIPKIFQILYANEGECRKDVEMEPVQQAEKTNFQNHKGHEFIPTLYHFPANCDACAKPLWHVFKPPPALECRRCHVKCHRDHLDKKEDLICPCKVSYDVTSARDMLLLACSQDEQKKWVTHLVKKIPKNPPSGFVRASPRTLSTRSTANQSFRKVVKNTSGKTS

SMILES | % ACTIVITY (ROCK1; 100 nM) [%] | % ACTIVITY (ASK1; 100 nM) [%] | % ACTIVITY (ASK1; 500 nM) [%] | % ACTIVITY (CDK6/Cyclin D3; 100 nM) [%] | % ACTIVITY (CDK6/Cyclin D3; 500 nM) [%] | % ACTIVITY (LRRK2; 100 nM) [%] | % ACTIVITY (LRRK2; 500 nM) [%] | % ACTIVITY (CDK1/Cyclin B1; 100 nM) [%] | % ACTIVITY (CDK4/Cyclin D1; 100 nM) [%] | % ACTIVITY (CDK4/Cyclin D1; 500 nM) [%] | % ACTIVITY (CDK2/Cyclin A1; 100 nM) [%] | other results
O=C1Nc2ccccc2OC1=Cc1cc(Br)c(O)c(Br)c1 [ASK-2a] | 96 | 104 | 97 | 104 | 99 | 96 | 94 | 91 | 93 | 97 | 104 | % ACTIVITY (ROCK1; 500 nM): 98%; % ACTIVITY (p38β; 100 nM, 0.1 µM): 33%; % ACTIVITY (p38β; [1]): inhibited efficiently; % ACTIVITY (JNK3; 100 nM, 0.1 µM): 94%; % ACTIVITY (JNK3; [1]): inhibited efficiently; % ACTIVITY (CDK1/Cyclin B1; 500 nM): 98%; % ACTIVITY (CDK2/Cyclin A1; 500 nM): 100%; % ACTIVITY (MLK3; 0.1 µM): 88%; % ACTIVITY (MLK3; listed as ASK2a, 0.1 µM): inhibited less efficiently; % ACTIVITY (GSK3β; 100 nM, 0.1 µM): 55%; % ACTIVITY (GSK3β; [1]): inhibited efficiently
Nc1ccc2c(c1)NC(=O)/C(=C/c1cc(Br)c(O)c(Br)c1)O2 [HSB-13, (Z)-6-amino-2-(3,′5′-dibromo-4′-hydrozybenzylidene)-2H-benzo[b][1,4]oxazin-3(4H)-one] | 91 | 104 | 95 | 99 | 89 | 97 | 88 | 90 | 103 | 88 | 82 | % ACTIVITY (p38β; 500 nM): 10%; % ACTIVITY (JNK3; 100 nM): 92%; % ACTIVITY (JNK3; 500 nM): 92%; % ACTIVITY (MLK3): 94%; % ACTIVITY (GSK3β; 500 nM): 19%
